# Columns and labels:
# [1] = test system: mouse macrophages (RAW 264.7); assay: In vitro innate immunity: cytokine secretion (ELISA) of macrophages treated with indoor dust-derived vesicles; format: cell-based; conditions: Dust-EV treated with PMB or heat, vs Dust-EV alone
# Description: Indoor dust was solubilized in PBS to separate extracellular vesicles and soluble components. The induction of innate immune responses by the vesicles and the water-soluble components was examined in vitro by applying them to mouse macrophages and measuring cytokine levels in the culture media.
# (§1) In detail, mouse macrophages (RAW264.7) were seeded at a density of 1×10^5 cells/well into 24 well plates and maintained for 24 hours. After the cells were washed with PBS, a fresh DMEM medium was added to the cells which were then incubated for 15 hours with dust-derived extracellular vesicles (Dust-EV, 0.1 μg/ml) and soluble components (Dust-soluble, 8 μg/ml), separately. The culture media were harvested and centrifuged at 4° C. and 800×g for 10 min. Cytokines in the supernatant were quantitatively analyzed by enzyme linked immunosorbent assay (ELISA).
# In addition, cytokine levels were measured after the cells were treated with 100 ng/ml and 1 μg/ml of the extracellular vesicles in the same manner as described above.
# It is well known that LPS, found in the outer membrane of Gram-negative bacteria, acts as an endotoxin to induce innate immune responses and that it has been detected in indoor dust.
# C57BL/6 mice = assay: In vivo acquired immune response to repetitive intranasal Dust-EV with or without PMB; design: species or system mouse
# Description: C57BL/6 mice (6 weeks old, female, four in each group) were intranasally administered twice a week for three weeks with 1 μg of indoor dust-derived extracellular vesicles in 30 μl of PBS. In addition, the vesicles were administered together with PMB so as to examine the presence and role of LPS therein. Twenty four hours after injection, clinical analysis was performed.
# Moreover, the immunological mechanism associated with the onset of lung inflammation was evaluated. Immune cells were separated from local lymph nodes and analyzed for the expression levels of IFN-γ and IL-17.
# [2] = test system: mouse macrophages (RAW 264.7); assay: In vitro innate immune response: cytokine secretion (ELISA) of macrophages treated with HDM-EV; format: cell-based; conditions: house dust mite-derived vesicles with Polymyxin B
# Description: as §1, with “grown” for “maintained”, “100 ng, 1 μg and 10 μg of house dust mite-derived” for “dust-derived”, “(HDM-EV).” for “(Dust-EV, 0.1 μg/ml) and soluble components (Dust-soluble, 8 μg/ml), separately.”
# [3] = vesicles in combination with PMB, ELISA
substance,measurement,setting,value
Polymyxin B [PMB],vesicle-induced secretion of IL-6,[1],significantly reduced
same,vesicle-induced secretion of TNF-α,[1],significantly decreased
same,count of inflammatory cells in BAL fluid,"C57BL/6 mice; Dust-EV administered together with PMB (Dust-EV+PMB), in contrast to vesicles alone",low
same,count of T cells secreting IFN-γ and IL-17 in local lymph nodes,C57BL/6 mice; Dust-EV in the presence of PMB,reduced the count of T cells including those secreting IFN-γ and IL-17 in local lymph nodes
same,level of IgG1 specific for indoor dust-derived vesicles in sera,C57BL/6 mice; [3],reduced to almost the same as those of the PBS group
same,level of IgG2a specific for indoor dust-derived vesicles in sera,C57BL/6 mice; [3],reduced to almost the same as those of the PBS group
same,vesicle-induced secretion of inflammatory mediators,[2],suppressed

# Source: patent US8691522B2, “Composition comprising extracellular membrane vesicles derived from indoor air, and use thereof” (priority 2009, dated 2014)
